From article PMC8658787, “Screening of Potential Thrombin and Factor Xa Inhibitors from the Danshen–Chuanxiong Herbal Pair through a Spectrum–Effect Relationship Analysis” (Molecules, 2021)
pIC50: −log10 of the molar value.

Legend:
factor Xa (FXa) = factor Xa (FXa) (Homo sapiens, UniProt P00742); experiment: FXa inhibitory activity assay (chromogenic substrate S-2765, absorbance at 405 nm); type: biochemical; details: in vitro enzymatic activity assay
Method: (§1) A stock solution of THR (125 U/mL) was prepared by dissolving 4.16 mg of THR in 1.0 mL of PBS. A stock solution of FXa (0.5 IU/mL) was prepared by dissolving 5.0 mg of FXa in 1.0 mL of PBS. Stock solutions of S-2238 (2 mg/mL) and S-2765 (2.5 mg/mL) were prepared in PBS. The DC extract samples (10 mg/mL) were prepared in a PBS buffer and diluted to 5.0 and 2.5 mg/mL as necessary.
(§2) THR and FXa inhibitory activity assays were performed with an iMark™ Microplate Absorbance Reader (Bio-Rad Laboratories, Inc., Hercules, CA, USA). A DC extract solution of 50 μL and a 50 μL THR solution were mixed and incubated for 10 min at 37 °C. Subsequently, a 100 μL S-2238 (2 mg/mL) solution as the chromogenic substrate was added to start the reaction in the microplate reader. The absorbance was monitored at 405 nm every 30 s for 10 min, and each group was measured three times. […] Except for the enzyme solution and chromogenic substrate, the procedure for assessing the FXa inhibitory activity was exactly the same as for THR. The inhibition rate (%) of THR and FXa was calculated using Formula (1). (1) I(%)=[(dA/dt)blank−(dA/dt)sample]/(dA/dt)blank where I(%) represents the % of inhibition, and (dA/dt)blank and (dA/dt)sample represent the reaction rate of the control and experimental group, respectively. The results were expressed as the mean ± standard deviation (SD) of three experiments.

thrombin (THR) = target: T1, thrombin (THR) (Homo sapiens, UniProt P00734); experiment: THR inhibitory activity assay (chromogenic substrate S-2238, absorbance at 405 nm); type: biochemical; details: in vitro enzymatic activity assay
T1 construct: purchased Sigma-Aldrich
Method: as §1, §2

Chain of factor Xa (FXa) (P00742 235-488 limits assumed): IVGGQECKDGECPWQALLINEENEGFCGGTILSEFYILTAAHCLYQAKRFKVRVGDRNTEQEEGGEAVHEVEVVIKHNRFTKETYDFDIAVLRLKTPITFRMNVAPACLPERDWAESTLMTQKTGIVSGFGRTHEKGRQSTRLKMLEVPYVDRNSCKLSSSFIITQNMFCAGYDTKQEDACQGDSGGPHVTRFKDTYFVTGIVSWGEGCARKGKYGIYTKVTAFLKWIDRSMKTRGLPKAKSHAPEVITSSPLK
Chain of factor Xa (FXa) (P00742 41-179 partner limits assumed): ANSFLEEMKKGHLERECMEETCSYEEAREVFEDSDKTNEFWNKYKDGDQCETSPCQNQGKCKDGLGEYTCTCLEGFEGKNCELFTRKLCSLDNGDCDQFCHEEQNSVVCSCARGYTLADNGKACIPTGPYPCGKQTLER

pIC50 (factor Xa (FXa))	pIC50 (thrombin (THR))	SMILES
2.60		COc1cc(/C=C/C(=O)O)ccc1O [Ferulic acid]
	3.73	O=C(/C=C/c1ccc(O)c(O)c1)O[C@@H]1C[C@](O)(C(=O)O)C[C@@H](O)[C@H]1O [Chlorogenic acid]
2.42		O=C(O)/C=C/c1ccc(O)c(O)c1 [Caffeic acid]
	2.84	CCC/C=C1\OC(=O)C2=C1CCC=C2 [Z-ligustilide]
3.95		Cc1coc2c1C(=O)C(=O)c1c-2ccc2c(C)cccc12 [Tanshinone I]
3.86		Cc1coc2c1C(=O)C(=O)c1c-2ccc2c1CCCC2(C)C [Tanshinone IIA]
